Consider eleven molecules from article PMC3388095, “Fluorophore Labeled Kinase Detects Ligands That Bind within the MAPK Insert of p38α Kinase” (PLoS ONE, 2012).

Bounds are passed on as bounds.

The target in one assay is T1, p38α MAPK insert (Homo sapiens, UniProt Q16539, C119S/C162S/S252C).
T1 construct: His-tag with PreScission Protease cleavage site (N); made in house; host or cells: E. coli BL21(DE3) Codon+RIL
T1 sequence (Q16539 whole entry C119S/C162S/S252C): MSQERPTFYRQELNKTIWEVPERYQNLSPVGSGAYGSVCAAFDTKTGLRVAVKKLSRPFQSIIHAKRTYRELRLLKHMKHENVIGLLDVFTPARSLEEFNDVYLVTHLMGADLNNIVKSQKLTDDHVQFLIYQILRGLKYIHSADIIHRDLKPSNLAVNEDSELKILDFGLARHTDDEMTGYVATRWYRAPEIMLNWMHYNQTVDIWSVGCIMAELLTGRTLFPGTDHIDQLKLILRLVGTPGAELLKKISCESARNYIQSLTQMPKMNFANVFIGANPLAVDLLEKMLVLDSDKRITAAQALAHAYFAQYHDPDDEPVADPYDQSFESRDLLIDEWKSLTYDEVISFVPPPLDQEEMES
Kind of assay: FLiK direct binding assay, acrylodan-labeled p38α (S252C) MAPK insert / lipid binding site. Conditions: binding to p38α MAPK insert; ratiometric acrylodan emission; each concentration in triplicate. As for the experimental part: The human p38α kinase construct containing the mutations required for specific labeling (C119S/C162S/S252C) as well as wild type p38α were cloned into a pOPINF vector and transformed as an N-terminal His-tag construct with a PreScission Protease cleavage site into BL21(DE3) Codon+RIL E. coli. Protein expression, purification, fluorophore labeling and verification of mono-labeling of the kinase were performed essentially as described previously. Labeling of the mutant p38α protein with thiol-reactive acrylodan was carried out by adding a 1.5∶1 molar excess of the fluorophore (dissolved in DMSO) to the purified protein in 50 mM Hepes Buffer (pH 7.0). The mixture was allowed to react in the dark overnight at 4°C. Unreacted acrylodan was subsequently removed by three cycles of buffer exchange into FLiK Measurement Buffer (50 mM Hepes Buffer, pH 7.4+200 mM NaCl) using a 10k-MWCO Centricon. The protein was concentrated to ∼200 μM, aliquoted and frozen at −80°C. Mono-labeling of the protein was verified by ESI-MS as described previously, [24].
Characterization of the fluorescence response of MAP insert-labeled p38α was carried out as described previously for p38α labeled on the activation loop. […] Briefly, a polystyrene cuvette containing a suspension of 50 nM acrylodan-labeled p38α in FLiK Buffer was excited at 386 nm and emission spectra were measured in the absence and presence of increasing concentrations of 1b. The compound was dissolved in 100% DMSO and delivered in sequential small doses to a single sample. […] Ratiometric fluorescence readouts are advantageous in that they provide an internal correction for small errors in sample volume which can affect signal intensity. All measurements of the cuvettes were made with a JASCO FP-6500 fluorescence spectrophotometer (JASCO GmbH, Germany).
The assay was adapted to high-throughput screening formats which enabled KD values to be determined in black small volume assay plates. Briefly, a dilution series of each compound was first prepared in 100% DMSO at 20X the desired final concentration and 1 μL was transferred to the assay plate. Compounds were then mixed with 19 µL of FLiK Buffer (supplemented with 0.01% Triton X-100) containing acrylodan-labeled p38α (100 nM). The final concentration of compound in the dilution series ranged from 0–50 μM (5% v/v DMSO final). Plates were covered with an adhesive aluminum foil and incubated for 30 min at RT prior to measurement of emission intensities at 470 and 520 nm using a Tecan Safire^2 plate reader. […] Binding curves were plotted using the ratio R = I520/I470 to determine the KD.
A word on the Kd: it is the free concentration of one partner at which half of the binding sites on the other are occupied at equilibrium, for simple one-to-one binding. Read a low Kd as a tighter complex. In the case of `Nc1ccc2c(NCC3CC3)nc(-c3ccccc3)nc2c1` [6b, N^4-(Cyclopropylmethyl)-2-phenyl-4,7-quinazolinediamine], binding was characterised by a dissociation constant (Kd) of 4700 ± 700 nM.
Still for that read-out and setting: the result for `O=[N+]([O-])c1ccc2c(NCCc3ccccc3)nc(-c3ccncc3)nc2c1` [8c, 7-Nitro-N-(2-phenylethyl)-2-(4-pyridinyl)-4-quinazolinamine] reads 1800 ± 300 nM; that for `O=[N+]([O-])c1ccc2c(NCc3ccccc3)nc(-c3ccccc3)nc2c1` [7a, N-Benzyl-7-nitro-2-phenyl-4-quinazolinamine], 320 ± 90 nM; that for `O=[N+]([O-])c1ccc2c(NC3CC3)nc(-c3ccccc3)nc2c1` [1a, N-Cyclopropyl-7-nitro-2-phenyl-4-quinazolinamine], 1900 ± 200 nM.
Still for that read-out and setting: the result for `Nc1ccc2c(NCc3ccccc3)nc(-c3ccccc3)nc2c1` [7b, N^4-Benzyl-2-phenyl-4,7-quinazolinediamine] reads 2200 ± 800 nM; that for `O=[N+]([O-])c1ccc2c(NCC3CC3)nc(-c3ccccc3)nc2c1` [6a, N-(Cyclopropylmethyl)-7-nitro-2-phenyl-4-quinazolinamine], 460 ± 210 nM; that for `Nc1ccc2c(NC3CC3)nc(-c3ccncc3)nc2c1` [5b, N^4-Cyclopropyl-2-(4-pyridinyl)-4,7-quinazolinediamine], > 50000 nM.
`O=[N+]([O-])c1ccc2c(NCc3ccccc3)nc(-c3ccncc3)nc2c1` [7c, N-Benzyl-7-nitro-2-(4-pyridinyl)-4-quinazolinamine] displayed a Kd of 810 ± 100 nM.
`Nc1ccc2c(NCCc3ccccc3)nc(-c3ccccc3)nc2c1` [8b, 2-Phenyl-N^4-(2-phenylethyl)-4,7-quinazolinediamine] displayed a Kd of 1200 ± 300 nM.
On to `O=[N+]([O-])c1ccc2c(NC3CC3)nc(-c3ccncc3)nc2c1` [5a, N-Cyclopropyl-7-nitro-2-(4-pyridinyl)-4-quinazolinamine], for which the Kd was > 10000 nM.

Staying with this assay, now noted: binding to p38α MAPK insert; value as printed in text.
In turn, `O=[N+]([O-])c1ccc2c(NCCc3ccccc3)nc(-c3ccccc3)nc2c1` [8a, 7-Nitro-2-phenyl-N-(2-phenylethyl)-4-quinazolinamine] had a Kd of 280 nM.
